In patent US6239171A, “Tocotrienols and tocotrienol-like compounds and methods for their use” (Lipogenics, Inc., priority 1998, dated 2001):

What was measured:
[1] = biological target: T1, HMG-CoA reductase (Homo sapiens, UniProt P04035); experiment: Hepatic HMG-CoA reductase activity in chickens fed supplemented diets; assay type: in vivo, chicken; settings: 4 weeks
T1 construct: hepatocytes isolated from livers of 8-week old female chickens; endogenous in cells; host or cells: primary chicken hepatocytes
T1 sequence (P04035 1-888): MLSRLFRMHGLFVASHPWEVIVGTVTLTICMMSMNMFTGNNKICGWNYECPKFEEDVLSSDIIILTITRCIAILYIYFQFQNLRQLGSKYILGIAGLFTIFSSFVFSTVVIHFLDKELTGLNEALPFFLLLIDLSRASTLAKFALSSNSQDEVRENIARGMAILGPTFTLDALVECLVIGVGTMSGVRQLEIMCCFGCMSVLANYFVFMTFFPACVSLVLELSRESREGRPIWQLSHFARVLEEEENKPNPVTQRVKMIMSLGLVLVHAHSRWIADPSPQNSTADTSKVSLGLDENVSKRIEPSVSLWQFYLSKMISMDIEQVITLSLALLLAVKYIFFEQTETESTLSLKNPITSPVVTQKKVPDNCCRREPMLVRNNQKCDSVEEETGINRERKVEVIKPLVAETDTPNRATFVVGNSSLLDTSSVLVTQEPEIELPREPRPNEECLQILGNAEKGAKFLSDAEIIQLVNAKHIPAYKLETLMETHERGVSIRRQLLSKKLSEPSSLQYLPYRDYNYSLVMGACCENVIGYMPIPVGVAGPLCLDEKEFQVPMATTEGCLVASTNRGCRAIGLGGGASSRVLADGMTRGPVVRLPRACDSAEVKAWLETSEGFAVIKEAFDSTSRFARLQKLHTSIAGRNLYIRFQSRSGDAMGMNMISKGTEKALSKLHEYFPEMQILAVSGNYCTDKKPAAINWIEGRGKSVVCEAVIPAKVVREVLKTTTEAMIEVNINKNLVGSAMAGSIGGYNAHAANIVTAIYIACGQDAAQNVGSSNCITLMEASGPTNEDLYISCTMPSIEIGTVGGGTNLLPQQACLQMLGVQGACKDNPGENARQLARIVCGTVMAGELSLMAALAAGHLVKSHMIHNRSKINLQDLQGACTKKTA
Method: (§3) This example measured the effects of the TRF and its components on the hepatic enzymatic activity of HMG-CoA reductase and cholesterol 7α-hydroxylase. […] The amount of feed consumed ranged from 11.19-11.60 g per chicken and the feeding period was 4 weeks. The birds were fasted for a period of 36 hours and refed for 48 hours prior to sacrifice (at 0800 hours).

[2] = tested on: chickens; experiment: Antibody titers to sheep red blood cells in chickens; assay type: in vivo, chicken; settings: 4 weeks, sheep red blood cells i.p.
[3] = tested on: cholesterol 7α-hydroxylase; experiment: Hepatic cholesterol 7α-hydroxylase activity in chickens fed supplemented diets; assay type: in vivo, chicken; settings: 4 weeks
Method: as §3

[4] = tested on: chickens; experiment: Serum cholesterol, apolipoproteins, triglycerides and glucose in chickens fed supplemented diets; assay type: in vivo, chicken; settings: 4 weeks; for increase in the HDL-/LDL-cholesterol ratio / reduction of serum cholesterol: 100 ppm in diet
Source text: All assays conducted on chicken or swine serum were done following the protocols described in A. A. Qureshi et al., "Lowering Of Serum Cholesterol In Hypercholesterolemic Humans By Tocotrienols" (Palmvitee), Am. J. Clin. Nutr., 53, pp. 1021S-26S (1991). All enzymatic assays were done following the protocols described in A. A. Qureshi et al., "Effects of Cereals and Culture Filtrate of Trichoderma viride on Lipid Metabolism of Swine", Lipids, 17, pp. 924 (1982). Plasma insulin, glucagon and TNF levels were measured using radioinnumoassay kits from Ventrex Laboratories, Inc. (Portland, Me.), ICN Biomedicals, Inc. (Costa Mesa, Calif.) and Genzyme Corp. (Cambridge, Mass.), respectively. […]
Each group of 6 chickens (6-week old female while leghorn) was administered the chick mash diet described in Example 5, supplemented with one of three different amounts of waxes (sterols), 50 ppm of TRF (prepared as in Example 2) or 5% equivalent of the methanol insoluble fraction Louisiana rice bran oil. […] The birds were fasted for a period of 14 hours prior to sacrifice (at 0800 hours). […]

[5] = biological target: T1, HMG-CoA reductase; experiment: HMG-CoA reductase activity in isolated chicken hepatocytes; assay type: cell-based
Method: (§1) This study measured the effects of three tocotrienols isolated from rice bran on cholesterol-related enzyme activity in hepatocytes isolated from livers of 8-week old female chickens. The chickens were fed the chick mash diet for 8 weeks. They were then fasted for 40 hours and finally refed for 48 hours before sacrifice. The hepatocytes were then prepared following standard methods.
(§2) Each compound was isolated from TRF using the following protocol: A bond Elute amine column was equilibrated with 2 ml hexane. 10 mg of TRF (dissolved in 0.5 ml hexane) was bound to the amine column. The column was washed with 1 ml of hexane, then with 1 ml of 3% isopropanol in hexane. P-21 and P-25 were eluted off the column with 5% isopropanol in hexane. Then using 10% isopropanol in hexane, the impurity P-20 was eluted. α-tocotrienol was also tested.
We next measured the effects of various tocotrienols and tocotrienol-like compounds isolated from rice bran on the activity of HMG-CoA reductase. 20.0 g of stabilized rice bran was extracted with 200.0 ml of methanol to remove various UV absorbing impurities and tocotrienols (6.7 mg total). This step was repeated four times. The remaining residue was dried under vacuum in a desiccator and then heated at 180° C. for 2 hours under 30 psi pressure. Then the dried residue was extracted again with 200.0 ml methanol (3.4 mg). […]

[6] = biological target: T2, Fatty Acid Synthase (Gallus gallus, UniProt P12276); experiment: Fatty acid synthase activity in isolated chicken hepatocytes; assay type: cell-based
T2 construct: hepatocytes isolated from livers of 8-week old female chickens; endogenous in cells; host or cells: primary chicken hepatocytes
Method: as §1, §2

[7] = tested on: chickens; experiment: Plasma thromboxane B2 and platelet factor 4 in chickens fed supplemented diets; assay type: in vivo, chicken; settings: 4 weeks
Source text: We next measured the effects of TRF and its components on serum levels of apolipoprotein (a)1, apolipoprotein B, triglycerides and glucose and the plasma levels of thromboxane B2 and platelet factor 4.

[8] = tested on: cholesterol 7α-hydroxylase; experiment: Cholesterol 7α-hydroxylase activity in isolated chicken hepatocytes; assay type: cell-based
Method: as §1, §2

T2 sequence (P12276 2-2512 limits assumed): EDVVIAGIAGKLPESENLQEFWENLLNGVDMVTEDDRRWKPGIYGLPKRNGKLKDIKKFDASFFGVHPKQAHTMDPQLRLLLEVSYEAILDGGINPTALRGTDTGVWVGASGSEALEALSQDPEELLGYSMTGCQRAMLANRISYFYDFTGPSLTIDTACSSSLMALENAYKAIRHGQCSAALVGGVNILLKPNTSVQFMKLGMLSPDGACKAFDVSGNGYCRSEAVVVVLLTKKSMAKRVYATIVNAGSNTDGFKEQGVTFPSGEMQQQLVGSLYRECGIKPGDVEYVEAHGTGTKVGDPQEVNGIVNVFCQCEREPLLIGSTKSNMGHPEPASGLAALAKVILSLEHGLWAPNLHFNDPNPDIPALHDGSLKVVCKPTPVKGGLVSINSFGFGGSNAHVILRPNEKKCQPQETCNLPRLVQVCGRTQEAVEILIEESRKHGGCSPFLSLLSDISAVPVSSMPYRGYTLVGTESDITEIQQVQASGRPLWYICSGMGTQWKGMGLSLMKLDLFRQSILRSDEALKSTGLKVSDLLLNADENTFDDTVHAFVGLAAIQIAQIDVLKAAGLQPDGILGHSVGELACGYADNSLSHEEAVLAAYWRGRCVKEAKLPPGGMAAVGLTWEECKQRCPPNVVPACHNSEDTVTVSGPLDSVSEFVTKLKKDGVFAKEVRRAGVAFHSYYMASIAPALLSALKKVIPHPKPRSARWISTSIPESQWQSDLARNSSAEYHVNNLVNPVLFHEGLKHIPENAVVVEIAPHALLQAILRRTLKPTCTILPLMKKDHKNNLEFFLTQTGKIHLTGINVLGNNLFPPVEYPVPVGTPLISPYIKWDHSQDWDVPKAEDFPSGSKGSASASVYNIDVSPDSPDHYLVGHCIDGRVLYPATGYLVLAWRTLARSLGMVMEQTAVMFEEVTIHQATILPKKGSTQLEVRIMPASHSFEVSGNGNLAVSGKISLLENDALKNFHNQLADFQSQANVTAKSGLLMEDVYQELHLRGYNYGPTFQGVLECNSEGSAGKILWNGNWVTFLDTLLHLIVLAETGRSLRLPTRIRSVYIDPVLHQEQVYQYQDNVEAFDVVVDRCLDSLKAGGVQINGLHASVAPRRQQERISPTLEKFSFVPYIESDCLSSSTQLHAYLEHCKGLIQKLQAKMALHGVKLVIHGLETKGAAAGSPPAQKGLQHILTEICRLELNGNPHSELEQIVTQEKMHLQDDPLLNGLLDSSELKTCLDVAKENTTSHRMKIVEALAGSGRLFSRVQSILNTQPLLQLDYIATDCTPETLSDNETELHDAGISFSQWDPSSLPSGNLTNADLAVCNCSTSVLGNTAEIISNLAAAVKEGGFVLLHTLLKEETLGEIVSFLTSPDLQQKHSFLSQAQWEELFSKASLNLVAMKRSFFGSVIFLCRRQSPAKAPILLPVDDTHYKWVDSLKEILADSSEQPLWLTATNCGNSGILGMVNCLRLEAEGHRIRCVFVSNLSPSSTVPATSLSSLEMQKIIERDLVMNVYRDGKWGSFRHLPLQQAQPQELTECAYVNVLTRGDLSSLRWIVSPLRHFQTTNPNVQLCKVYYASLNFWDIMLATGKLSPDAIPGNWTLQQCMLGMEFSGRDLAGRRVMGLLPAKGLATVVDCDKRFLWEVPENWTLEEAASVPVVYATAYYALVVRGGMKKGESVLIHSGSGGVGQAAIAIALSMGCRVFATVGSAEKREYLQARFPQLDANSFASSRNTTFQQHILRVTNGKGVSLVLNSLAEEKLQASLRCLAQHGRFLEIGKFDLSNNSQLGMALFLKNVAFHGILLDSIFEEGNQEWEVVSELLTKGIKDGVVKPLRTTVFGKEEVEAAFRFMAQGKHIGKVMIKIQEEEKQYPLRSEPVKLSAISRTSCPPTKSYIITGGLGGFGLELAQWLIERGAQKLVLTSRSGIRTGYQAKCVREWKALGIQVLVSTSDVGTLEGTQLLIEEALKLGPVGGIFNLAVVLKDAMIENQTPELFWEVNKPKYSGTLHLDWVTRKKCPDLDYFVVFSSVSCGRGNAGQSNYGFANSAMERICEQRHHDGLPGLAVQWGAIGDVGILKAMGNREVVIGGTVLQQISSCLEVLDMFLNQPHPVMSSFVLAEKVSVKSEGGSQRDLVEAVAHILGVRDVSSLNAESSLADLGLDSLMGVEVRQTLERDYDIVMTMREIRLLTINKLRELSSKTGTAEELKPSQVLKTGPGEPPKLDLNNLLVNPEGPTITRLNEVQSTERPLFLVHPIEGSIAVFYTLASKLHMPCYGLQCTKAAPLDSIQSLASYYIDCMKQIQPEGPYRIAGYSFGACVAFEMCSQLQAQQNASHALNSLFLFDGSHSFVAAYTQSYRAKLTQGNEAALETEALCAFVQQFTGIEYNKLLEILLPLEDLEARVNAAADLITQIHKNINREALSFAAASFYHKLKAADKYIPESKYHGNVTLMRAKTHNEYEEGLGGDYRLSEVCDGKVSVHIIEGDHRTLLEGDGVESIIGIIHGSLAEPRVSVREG

## CC(C)=CCC/C(C)=C/CC/C(C)=C/CC[C@]1(C)CCc2c(C)c(O)c(C)c(C)c2O1 [α-T3, α-tocotrienol]
[1]; control diet + 50 ppm
  HMG-CoA Reductase, percentage of control: 89.43%
[2]; control diet + 50 ppm
  IgG antibody titers in serum: 1.00 Log 2
  IgM antibody titers in serum: 6.60 ± 1.24 Log 2
  Total Ab titers in serum: 7.10 ± 1.51 Log 2
[3]; control diet + 50 ppm
  Cholesterol 7α-Hydroxylase, percentage of control: 104.60%
  Cholesterol 7α-hydroxylase: 10.69 nmol/min/mg
[4]; control diet + 50 ppm
  APO A1, percentage of control: 99.43%
  APO A1 in serum: 139.6 mg/100 ml
  APO B in serum: 29.30 mg/100 ml
  APO B, percentage of control: 88.52%
  DL-Cholesterol/Total Cholesterol: 0.61
  DL-Cholesterol/Total Cholesterol, percentage of control: 104.30%
  Glucose in serum: 216.90 mg/100 ml
  Glucose, percentage of control: 96.70%
  HDL-Cholesterol in serum: 80.47 ± 0.67 mg/dL
  HDL-Cholesterol, percentage of control: 96.19%
  HDL-Cholesterol/LDL-Cholesterol: 2.09
  HDL-Cholesterol/LDL-Cholesterol, percentage of control: 110.40%
  LDL-Cholesterol in serum: 47.97 ± 0.56 mg/dL
  LDL-Cholesterol, percentage of control: 87.12%
  Total Cholesterol in serum: 131.71 ± 1.08 mg/dL
  Total Cholesterol, percentage of control: 92.25%
  Triglycerides in serum: 68.04 mg/100 ml
  Triglycerides, percentage of control: 91.91%
[5]
  maximum reduction in activity of HMG-CoA reductase: 37.7%
[6]; 10.0 μg/mL
  Fatty Acid Synthase: 15.2 nmol/min/mg
  Fatty Acid Synthase, percentage of 0.0 μg/mL: 88.4%
[6]; 20.0 μg/mL
  Fatty Acid Synthase: 14.3 nmol/min/mg
  Fatty Acid Synthase, percentage of 0.0 μg/mL: 83.2%
[6]; 40.0 μg/mL
  Fatty Acid Synthase: 12.4 nmol/min/mg
  Fatty Acid Synthase, percentage of 0.0 μg/mL: 72.1%
[7]; control diet + 50 ppm
  Platelet Factor 4: 8.78 ng/mL
  Platelet Factor 4, percentage of control: 67.07%
  Thromboxane B2: 21.63 pg/mL
  Thromboxane B2, percentage of control: 83.71%
[8]; 10.0 μg/mL
  Cholesterol 7α-hydroxylase: 2.12 pmol/min/mg
  Cholesterol 7α-hydroxylase, percentage of 0.0 μg/mL: 91.8%
[8]; 20.0 μg/mL
  Cholesterol 7α-hydroxylase: 2.27 pmol/min/mg
  Cholesterol 7α-hydroxylase, percentage of 0.0 μg/mL: 98.7%
[8]; 40.0 μg/mL
  Cholesterol 7α-hydroxylase: 2.34 pmol/min/mg
  Cholesterol 7α-hydroxylase, percentage of 0.0 μg/mL: 101.3%

## CC(C)=CCC/C(C)=C/CO [Geraniol]
[1]; control diet + 100 ppm
  HMG-CoA Reductase, percentage of control: 87.65%
[2]; control diet + 100 ppm
  IgG antibody titers in serum: 1.00 ± 0.00 Log 2
  IgM antibody titers in serum: 5.42 Log 2
  Total Ab titers in serum: 5.60 ± 2.11 Log 2
[3]; control diet + 100 ppm
  Cholesterol 7α-Hydroxylase, percentage of control: 100.59%
  Cholesterol 7α-hydroxylase: 10.28 nmol/min/mg
[4]
  increase in the HDL-/LDL-cholesterol ratio: ≤ 31.5%
  reduction of serum cholesterol: 14%
[4]; control diet + 100 ppm
  APO A1, percentage of control: 98.58%
  APO A1 in serum: 138.40 mg/100 ml
  APO B in serum: 29.20 mg/100 ml
  APO B, percentage of control: 88.22%
  DL-Cholesterol/Total Cholesterol: 0.65
  DL-Cholesterol/Total Cholesterol, percentage of control: 110.10%
  Glucose in serum: 227.60 mg/100 ml
  Glucose, percentage of control: 101.47%
  HDL-Cholesterol in serum: 82.28 ± 1.06 mg/dL
  HDL-Cholesterol, percentage of control: 98.35%
  HDL-Cholesterol/LDL-Cholesterol: 2.00
  HDL-Cholesterol/LDL-Cholesterol, percentage of control: 131.50%
  LDL-Cholesterol in serum: 41.07 ± 1.13 mg/dL
  LDL-Cholesterol, percentage of control: 96.30%
  Total Cholesterol in serum: 122.53 ± 1.37 mg/dL
  Total Cholesterol, percentage of control: 85.82%
  Triglycerides in serum: 71.29 mg/100 ml
  Triglycerides, percentage of control: 96.30%
[7]; control diet + 100 ppm
  Platelet Factor 4: 12.38 ng/mL
  Platelet Factor 4, percentage of control: 94.57%
  Thromboxane B2: 25.46 pg/mL
  Thromboxane B2, percentage of control: 98.53%

## CC[C@H](C)C(=O)O[C@H]1C[C@@H](C)C=C2C=C[C@H](C)[C@H](CC[C@@H]3C[C@@H](O)CC(=O)O3)[C@H]21 [Lovastatin]
[2]; control diet + 100 ppm
  IgG antibody titers in serum: 1.00 ± 0.00 Log 2
  IgM antibody titers in serum: 5.90 Log 2
  Total Ab titers in serum: 6.33 ± 1.44 Log 2
[3]; control diet + 100 ppm
  Cholesterol 7α-Hydroxylase, percentage of control: 110.96%
  Cholesterol 7α-hydroxylase: 11.34 nmol/min/mg
[4]
  increase in the HDL-/LDL-cholesterol ratio: ≤ 31.5%
  reduction of serum cholesterol: 10%
[4]; control diet + 100 ppm
  APO A1, percentage of control: 99.29%
  APO A1 in serum: 139.9 mg/100 ml
  APO B in serum: 25.80 mg/100 ml
  APO B, percentage of control: 77.95%
  DL-Cholesterol/Total Cholesterol: 0.63
  DL-Cholesterol/Total Cholesterol, percentage of control: 108.00%
  Glucose in serum: 220.10 mg/100 ml
  Glucose, percentage of control: 98.13%
  HDL-Cholesterol in serum: 81.38 ± 0.73 mg/dL
  HDL-Cholesterol, percentage of control: 97.28%
  HDL-Cholesterol/LDL-Cholesterol: 1.84
  HDL-Cholesterol/LDL-Cholesterol, percentage of control: 121.40%
  LDL-Cholesterol in serum: 44.12 ± 1.26 mg/dL
  LDL-Cholesterol, percentage of control: 86.51%
  Total Cholesterol in serum: 128.65 ± 1.02 mg/dL
  Total Cholesterol, percentage of control: 90.11%
  Triglycerides in serum: 64.04 mg/100 ml
  Triglycerides, percentage of control: 86.51%
[7]; control diet + 100 ppm
  Platelet Factor 4: 12.24 ng/mL
  Platelet Factor 4, percentage of control: 93.51%
  Thromboxane B2: 24.89 pg/mL
  Thromboxane B2, percentage of control: 96.32%

## CC(C)=CCC/C(C)=C/CC/C(C)=C/CCC1(C)CCc2cc(O)cc(C)c2O1 (centres unmarked) [δ-T3, δ-tocotrienol]
[1]; control diet + 50 ppm
  HMG-CoA Reductase, percentage of control: 75.83%
[2]; control diet + 50 ppm
  IgG antibody titers in serum: 1.00 Log 2
  IgM antibody titers in serum: 8.25 ± 1.96 Log 2
  Total Ab titers in serum: 8.67 ± 1.78 Log 2
[3]; control diet + 50 ppm
  Cholesterol 7α-Hydroxylase, percentage of control: 107.44%
  Cholesterol 7α-hydroxylase: 10.98 nmol/min/mg
[4]; control diet + 50 ppm
  APO A1, percentage of control: 99.22%
  APO A1 in serum: 139.30 mg/100 ml
  APO B in serum: 27.30 mg/100 ml
  APO B, percentage of control: 82.48%
  DL-Cholesterol/Total Cholesterol: 0.65
  DL-Cholesterol/Total Cholesterol, percentage of control: 111.30%
  Glucose in serum: 205.30 mg/100 ml
  Glucose, percentage of control: 91.53%
  HDL-Cholesterol in serum: 77.78 ± 0.97 mg/dL
  HDL-Cholesterol, percentage of control: 93.08%
  HDL-Cholesterol/LDL-Cholesterol: 2.15
  HDL-Cholesterol/LDL-Cholesterol, percentage of control: 141.80%
  LDL-Cholesterol in serum: 36.14 ± 0.97 mg/dL
  LDL-Cholesterol, percentage of control: 65.64%
  Total Cholesterol in serum: 119.40 ± 1.41 mg/dL
  Total Cholesterol, percentage of control: 83.63%
  Triglycerides in serum: 60.50 mg/100 ml
  Triglycerides, percentage of control: 81.72%
[7]; control diet + 50 ppm
  Platelet Factor 4: 8.23 ng/mL
  Platelet Factor 4, percentage of control: 62.87%
  Thromboxane B2: 18.65 pg/mL
  Thromboxane B2, percentage of control: 72.17%
